Test results reported in patent US20120251465A1, “FLAVOR COMPOSITION CONTAINING FLAVONE GLYCOSIDES” (priority 2011, published 2012).

Test: Warming compositions evaluated by a trained sensory panel (intensity scale 0 to 5)
Details: flavone glycoside 1 ppm combined with capsicum oleoresin 2 ppm; for Enhancement of the warming effect of capsicum oleoresin: versus capsicum oleoresin 2 ppm alone; for Flavor Intensity: scale 0 to 5 (0=none, 1=minimal, 3=moderate, 5=intense)

Row | SMILES | Enhancement of the warming effect of capsicum oleoresin | Flavor Intensity
1 | COc1ccc(-c2cc(=O)c3c(O)cc(OC4OC(COC5OC(C)C(O)C(O)C5O)C(O)C(O)C4O)cc3o2)cc1 (centres unmarked) [Formula V, acacetin 7-O-rutinoside] | enhanced | 3.5
2 | COc1ccc(-c2cc(=O)c3c(O)cc(OC4OC(CO)C(O)C(O)C4O)cc3o2)cc1 (centres unmarked) [Formula III, acacetin 7-O-glucoside] | enhanced | 2.5
3 | CC1OC(OCC2OC(Oc3cc(O)c4c(=O)cc(-c5ccc(O)c(O)c5)oc4c3)C(O)C(O)C2O)C(O)C(O)C1O (centres unmarked) [Formula IV, luteolin 7-O-rutinoside] | enhanced | 2.5
4 | O=c1cc(-c2ccc(O)cc2)oc2cc(OC3OC(CO)C(O)C(O)C3O)cc(O)c12 (centres unmarked) [Formula II, apigenin 7-O-glucoside] | enhanced | 2.5
